# According to patent US8901156B2, “Compounds and methods” (Tempero Pharmaceuticals, Inc., priority 2010, dated 2014):
# Target: T1, Recombinant HDAC9 isoform 4 (Homo sapiens, UniProt Q9UKV0)
# T1 construct: purchased BPS Bioscience
# Experiment: Histone Deacetylase 9 (HDAC9) inhibition assay, fluorogenic substrate
# Type: biochemical
# Conditions: mean of a minimum of 2 experiments; 11 point 3x dilution series from 100 uM; substrate 4.5 uM; read-out: mean pIC50, inhibition of HDAC9 (converted)
# T1 sequence (Q9UKV0 1-1066 isoform Q9UKV0-5): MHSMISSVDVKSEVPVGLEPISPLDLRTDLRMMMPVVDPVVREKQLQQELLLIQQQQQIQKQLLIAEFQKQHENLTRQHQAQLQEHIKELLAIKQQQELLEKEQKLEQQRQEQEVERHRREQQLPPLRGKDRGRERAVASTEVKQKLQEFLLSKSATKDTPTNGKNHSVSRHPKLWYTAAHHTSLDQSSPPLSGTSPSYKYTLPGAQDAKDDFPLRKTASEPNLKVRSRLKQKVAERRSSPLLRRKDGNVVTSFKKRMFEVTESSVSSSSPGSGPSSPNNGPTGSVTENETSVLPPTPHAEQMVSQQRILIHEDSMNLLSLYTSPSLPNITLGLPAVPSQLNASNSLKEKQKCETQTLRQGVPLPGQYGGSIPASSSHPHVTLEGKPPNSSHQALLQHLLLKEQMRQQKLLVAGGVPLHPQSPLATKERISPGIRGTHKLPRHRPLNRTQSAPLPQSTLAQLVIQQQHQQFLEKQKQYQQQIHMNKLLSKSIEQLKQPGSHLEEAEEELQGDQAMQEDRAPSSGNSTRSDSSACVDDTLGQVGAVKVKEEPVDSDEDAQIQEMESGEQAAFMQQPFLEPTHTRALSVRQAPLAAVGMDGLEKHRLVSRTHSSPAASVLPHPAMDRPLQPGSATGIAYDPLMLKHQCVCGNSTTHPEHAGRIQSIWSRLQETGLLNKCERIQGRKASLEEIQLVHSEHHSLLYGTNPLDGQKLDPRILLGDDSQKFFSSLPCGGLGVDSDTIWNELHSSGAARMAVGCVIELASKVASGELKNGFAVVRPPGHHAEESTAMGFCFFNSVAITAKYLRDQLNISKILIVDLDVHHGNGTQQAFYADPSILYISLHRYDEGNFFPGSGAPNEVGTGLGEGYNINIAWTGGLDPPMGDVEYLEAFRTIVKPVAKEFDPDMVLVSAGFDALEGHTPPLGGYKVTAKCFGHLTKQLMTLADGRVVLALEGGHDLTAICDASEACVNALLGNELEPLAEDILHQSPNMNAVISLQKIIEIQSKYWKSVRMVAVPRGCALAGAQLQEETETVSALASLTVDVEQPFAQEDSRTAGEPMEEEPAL
row,Structure (SMILES),IC50
1,"O=C(NCC1(c2cccc(-c3ccccc3)c2)CCOCC1)c1cncc(-c2noc(C(F)(F)F)n2)c1 [Example 78, N-((4-([1,1′-Biphenyl]-3-yl)tetrahydro-2H-pyran-4-yl)methyl)-5-(5-(trifluoromethyl)-1,2,4-oxadiazol-3-yl)nicotinamide]",< 1 µM
2,"O=C(NCC1(c2nc(-c3ccncc3)cs2)CCOCC1)c1cccc(-c2noc(C(F)(F)F)n2)c1 [Example 21, N-((4-(4-(Pyridin-4-yl)thiazol-2-yl)tetrahydro-2H-pyran-4-yl)methyl)-3-(5-(trifluoromethyl)-1,2,4-oxadiazol-3-yl)benzamide]",< 1 µM
3,"O=S(=O)(NCC1(c2nc(-c3ccccc3)cs2)CCOCC1)c1cccc(-c2noc(C(F)(F)F)n2)c1 [Example 32, N-((4-(4-Phenylthiazol-2-yl)tetrahydro-2H-pyran-4-yl)methyl)-3-(5-(trifluoromethyl)-1,2,4-oxadiazol-3-yl)benzenesulfonamide]",< 1 µM

# The next lines start with the values.
row,IC50,Structure (SMILES)
1,< 1 µM,"O=C(NCCc1nc(-c2ccccc2)no1)c1cccc(-c2noc(C(F)(F)F)n2)c1 [Example 132, N-(2-(3-Phenyl-1,2,4-oxadiazol-5-yl)ethyl)-3-(5-(trifluoromethyl)-1,2,4-oxadiazol-3-yl)benzamide]"
2,< 1 µM,"O=C(NCCC(O)c1coc(-c2ccc(F)cc2)n1)c1cccc(-c2noc(C(F)(F)F)n2)c1 (centres unmarked) [Example 110, N-(3-(2-(4-Fluorophenyl)oxazol-4-yl)-3-hydroxypropyl)-3-(5-(trifluoromethyl)-1,2,4-oxadiazol-3-yl)benzamide]"
